{"source": "patent US20260373132A1", "about": "“PERK INHIBITORHC-5404 IN COMBINATION WITH ANTI-PD-1 ANTIBODY AND/OR AN ANTIANGIOGENETIC AGENT FOR USE IN THE TREATMENT OF CANCER” (HIBERCELL, INC., priority 2022, published 2026)", "key": {"pPERK in Caki-1 tumors": {"test_system": "pPERK in Caki-1 tumors", "assay": "pPERK in Caki-1 tumor xenografts", "type": "in vivo, mouse", "procedure": "Samples were put in 500 μL of Novex lysis buffer consisting of 2× Novex Tris-Glycine SDS sample buffer (ThermoFisher LC2676), 1× Phosphatase Inhibitor Cocktail III (Sigma P0044), 1× PhosphataseArrest I (Gbioscience 113P-D), 1×2-mercaptoethanol (Gibco 21985023), 1× Benzonase (EMD Millipore Corp 70746-3), and 1× Protease inhibitor cocktail tablet (Roche/Sigma 11836170001). Samples were homogenized with the Polytron and heated for 10 min at 95 °C. They were then centrifuged at max speed for 10 min and the supernatant was transferred. Protein concentrations of samples were measured using the Pierce 660 nm Protein assay kit (Thermo Scientific 22660) according to the manufacturer's instructions.\nWestern Blot analysis was performed on the SimpleWestern high-throughput protein analysis platform (ProteinSimple 004-650) according to manufacturer's protocol using a 12-230 kDA Separation Module (ProteinSimple SM-W004) and Total Protein Detection Module (ProteinSimple DM-TP01). Antibodies used were: (Add info for other antibodies used) pPERK (Lilly; 1:50) and PERK (Cell Signaling Technology 5683; 1:200). All protein analytes were normalized to total protein loaded on capillary. […]"}, "[1]": {"assay": "mouse plasma pharmacokinetics after single oral administration", "type": "in vivo", "procedure": "Initial in vivo studies aimed at understanding the pharmacokinetic and pharmacodynamic (PK/PD) relationship and optimizing the dosing regimen were conducted. HC-5404 was quantified from mouse plasma following a single oral administration (PO) at doses ranging from 3 to 100 mg/kg. […] Mouse plasma protein binding (PPB %) was determined to be 95.6%, which enabled us to calculate the free drug plasma exposure across time (FIG. 18)."}, "[2]": {"test_system": "786-O xenografts progressed on axitinib", "assay": "growth of 786-O xenografts that progressed on axitinib", "type": "in vivo, mouse", "conditions": "single agent 30 mg/kg PO BID, 28 days after progression on axitinib (FIG. 40)", "excerpt": "After 14 days of treatments, 77 mice bearing the largest tumors were rerandomized into four PD arms (n=8), four efficacy arms (n=10), and 5 tumors sampled on day of rerandomization as a baseline. The remaining animals were removed from study.\nDespite initial responses to VEGFR-TKI therapy, tumor regrowth necessitates subsequent rounds of alternate therapies to improve patient outcomes."}, "mouse pancreas": {"test_system": "mouse pancreas", "assay": "pancreas histology (pancreatic toxicity)", "type": "in vivo", "procedure": "As PERK inhibition has been associated with pancreatic toxicity, pancreas sections were evaluated from mice treated with 30 mg/kg or 100 mg/kg HC-5404. […] Together, these findings further supported the decision to dose at 30 mg/kg HC-5404 in subsequent in vivo studies."}, "ATF4 levels in HEK293": {"test_system": "ATF4 levels in HEK293", "assay": "HEK293 cell-based ATF4 western blot", "conditions": "Homo sapiens; HEK293, tunicamycin 1 μM", "procedure": "Cell based assays HEK293 cells were plated at 1×10^6 cells per well and treated with HC-5404 30 minutes prior to addition of tunicamycin (1 μM) to induce ER stress. Cells were harvested 4 hours following tunicamycin addition and lysed for western blotting in RIPA buffer supplemented with protease and phosphatase inhibitors. Total protein concentrations were determined by BCA and […] of protein were loaded on to SDS-PAGE gels, transferred to nitrocellulose and probed with a primary antibody against phosphorylated T-982 of human PERK or total ATF4 followed by incubation with an infrared labelled secondary antibody. Blots were imaged on a LiCor imager and normalized to total protein in the wells using Revert™ stain. Band intensities were quantified and normalized to DMSO treated samples. Normalized band intensities were plotted as percent inhibition against 10-point; 3-fold dilution series of HC-5404. IC50 values were calculated using 4-parameter logistical fitting in XLFit.\nThe cell-based activity of HC-5404 was evaluated using HEK293 treated with tunicamycin (Tm; 1 μM) to induce ER stress."}, "RXF-2304": {"test_system": "RXF-2304", "assay": "RCC PDX single animal trial, RXF-2304", "type": "in vivo, mouse", "conditions": "HC-5404 30 mg/kg PO BID, n=1", "excerpt": "This example investigated the effect of HC-5404 in combination with VEGFR-TKIs in inhibiting tumor growth using 12 RCC PDX tumor models, following procedures analogous to those described above.\nSingle animal per group (n=1) trial of animals harboring diverse RCC PDX models were used in this study."}, "786-O RCC xenograft": {"test_system": "786-O RCC xenograft", "assay": "786-O RCC xenograft tumor growth", "type": "in vivo, mouse", "procedure": "Xenograft RCC models were generated as follows: Female NOD.SCID mice (6-8 weeks of age) were injected with A498 RCC cells (5×10^6 cells/mouse), female Balb/c Nude mice (6-8 weeks old) were implanted with 786-O RCC cells (5×10^6 cells/mouse) or Caki-1 RCC cells (6×10^6 cells/mouse), female Athymic Nude-Foxn1nu mice (7-8 weeks of age) were implanted with MFE280 endometrial cells (10×10^6 cells/mouse). Cells were implanted into the flank of animals.\nOnce tumor tumors reached volume of typically 150-250 mm^3, animals were randomized by tumor volume into the treatment groups of 8 or 10 animals per group. In the single animal trial with RCC PDX models, only one animal per group was enrolled.\nBody weight and tumor volume were measured twice weekly. Tumor volume was calculated using the formula [tumor volume (mm^3)=π/6×length×width^2] and plotted as means+SEM. The percentage of tumor growth inhibition was calculated at the end of the study using the formula: […], if ΔT>0, ΔT, mean tumor volume of the drug-treated group on the observation day of the study—mean tumor volume of the drug-treated group on initial day of dosing; ΔC, mean tumor volume of the control group on the observation day of the study—mean tumor volume of the control group on initial day of dosing. Regression was calculated using the formula=100×ΔT/Tinitial, if ΔT<0. Animals with >50% regressions were partial responders. Animals with tumor volume of 0 (no measurable tumor) were considered as complete responders, and animals with <50% tumor regression and 30% growth over the baseline were considered as stable disease. Animals with tumors>30% increase over the baseline were considered progressive disease. The % change in body weight was calculated by the formula (body weight on observation day−body weight on initial day)/body weight on initial day×100%."}}, "data": [{"molecule": "Cc1cc(NC(=O)[C@H](O)c2cc(F)cc(F)c2)ccc1-c1cnc(N)c(C(=O)NC(C)C)c1", "note": "[HC-5404, (R)-2-amino-5-(4-(2-(3,5-difluorophenyl)-2-hydroxyacetamido)-2-methylphenyl)-N-isopropylnicotinamide]", "values": [{"measurement": "pPERK expression in Caki-1", "setting": "pPERK in Caki-1 tumors; 30 mg/kg PO BID, seven days (FIG. 30)", "value": "strongly inhibited pPERK expression"}, {"measurement": "pPERK levels in Caki-1", "setting": "pPERK in Caki-1 tumors; DC-101 study, 4 days of treatment, low signal-to-noise (FIG. 37)", "value": "not affected"}, {"measurement": "free drug (unbound) plasma exposure at Cmax / 1 h", "setting": "[1]; PO, 30 mg/kg", "value": 355, "unit": "nM"}, {"measurement": "concentration at 1 h", "setting": "[1]; plasma, PO, 30 mg/kg", "value": 3670, "unit": "ng/mL"}, {"measurement": "concentration at 12 h", "setting": "[1]; plasma, single PO, 100 mg/kg, read-out: plasma exposure up to 12 h after dosing", "value": "> 3200", "unit": "ng/mL"}, {"measurement": "Tmax", "setting": "[1]; plasma, single PO, 3 to 100 mg/kg, read-out: time of Cmax", "value": "< 1", "unit": "h"}, {"measurement": "unbound plasma concentration at Cmax", "setting": "[1]; single PO, 100 mg/kg", "value": 1605, "unit": "nM"}, {"measurement": "unbound plasma exposure up to 12 h after dosing", "setting": "[1]; single PO, 100 mg/kg", "value": "> 311", "unit": "nM"}, {"measurement": "average half-life", "setting": "[1]; single PO, 3 to 100 mg/kg", "value": 2.22, "unit": "h"}, {"measurement": "dose proportionality of exposure", "setting": "[1]; single PO, up to 100 mg/kg", "value": "Dose-proportional increases in exposure"}, {"measurement": "tumor growth inhibition relative to vehicle", "setting": "[2]", "value": 47, "unit": "%"}, {"measurement": "reversibility of histological pancreas changes", "setting": "mouse pancreas; 100 mg/kg PO BID, two-week washout", "value": "reversible with a two-week washout period"}, {"measurement": "histological changes in the pancreas", "setting": "mouse pancreas; 30 or 100 mg/kg PO BID, three weeks", "value": "histological changes in the pancreas only in the 100 mg/kg dose"}, {"measurement": "IC50", "setting": "ATF4 levels in HEK293", "value": 115, "unit": "nM"}, {"measurement": "antitumor efficacy as monotherapy", "setting": "RXF-2304", "value": "exhibited antitumor efficacy"}, {"measurement": "tumor growth inhibition", "setting": "786-O RCC xenograft; 30 mg/kg PO BID, 28 days (FIG. 22)", "value": 48, "unit": "%"}, {"measurement": "difference between BID and QD dosing", "setting": "786-O RCC xenograft; 3, 10, 30 mg/kg BID vs 6, 20, 60 mg/kg QD, PO", "value": "not statistically significant"}, {"measurement": "TGI", "setting": "786-O RCC xenograft; 10 and 30 mg/kg PO BID tested, 28 days (FIG. 36)", "value": "approximately 52%"}, {"measurement": "TGI %", "setting": "786-O RCC xenograft; HC-5404 30 mg/kg PO BID, cabozantinib combination study (FIG. 52)", "value": "~ 61%"}, {"measurement": "dose dependence of antitumor efficacy", "setting": "786-O RCC xenograft; HC-5404 3, 10 and 30 mg/kg PO BID", "value": "trend for dose-dependent antitumor efficacy"}, {"measurement": "effect on tumor volume", "setting": "786-O RCC xenograft; single agent, efficacy arms (FIG. 28)", "value": "modest effects on tumor volume"}]}]}
